Results as given in PubChem BioAssay AID623973 (The Scripps Research Institute Molecular Screening Center, 2012).
pIC50: −log10 of the molar value. Calls of active or inactive are those of the source. No rule for the calls is given here.

Molecular target: Hepatitis C virus NS3 helicase (ATPase activity)
Assay: inhibitors of HCV NS3 ATPase activity, late-stage follow-up, mechanism study for HCV NS3 helicase inhibitor project, biochemical, absorbance (AID 623973)
Settings: absorbance phosphate detection

Row | Structure (SMILES) | IC50 | pIC50
1 | Cc1cc2sc(-c3ccc4nc(-c5ccc(N)cc5)sc4c3)nc2cc1S(=O)(=O)O | > 200 µM (inactive) | 
2 | Cc1ccc2nc(-c3ccc4nc(-c5ccc(NC(=O)c6cc(C(F)(F)F)ccc6F)cc5)sc4c3)sc2c1S(=O)(=O)O |  | 4.21
3 | O=C(CCCCCCC(=O)Nc1ccc(-c2nc3ccccc3[nH]2)cc1)Nc1ccc(-c2nc3ccccc3[nH]2)cc1 | > 200 µM (inactive) | 
4 | CCOc1ccc2c(NNC(=O)c3cnccn3)c3c(nc2c1)CCCC3 | > 200 µM (inactive) | 
5 | Cc1ccc2nc(-c3ccc4nc(-c5ccc(NC(=O)Nc6ccccc6)cc5)sc4c3)sc2c1S(=O)(=O)O |  | 4.15
6 | Cc1ccc2nc(-c3ccc4nc(-c5ccc(NC(=O)c6ccc(F)cc6)cc5)sc4c3)sc2c1S(=O)(=O)O |  | 4.17
7 | Cc1ccc2nc(-c3ccc4nc(-c5ccc(N)cc5)sc4c3)sc2c1S(=O)(=O)O | > 200 µM (inactive) | 
8 | Cc1ccc2nc(-c3ccc(N)cc3)sc2c1S(=O)(=O)O | > 200 µM (inactive) | 
9 | Cc1cc(C(O)(c2ccc(Nc3ccccc3)cc2)c2ccc(Nc3ccc(S(=O)(=O)O)cc3)cc2)ccc1N (stereo unspecified) | > 200 µM (inactive) | 
10 | Cc1ccc2c(sc(-c3ccc4c(c3)sc(-c3ccc5c(c3)sc(-c3ccc(N(C)C)cc3)[n+]5C)[n+]4C)[n+]2C)c1S(=O)(=O)O (tested in a mixture with another compound) | > 200 µM (inactive) | 
11 | Cc1ccc2nc(-c3ccc(NC(=O)c4ccc(NC(=O)Nc5ccccc5)cc4)cc3)sc2c1S(=O)(=O)O | > 200 µM (inactive) | 
12 | CCN(CC)c1ccc(-c2nc3ccc(-c4nc5ccc(C)c(S(=O)(=O)O)c5s4)cc3s2)cc1 | > 200 µM (inactive) | 
13 | Cc1ccc2nc(-c3ccc4nc(-c5ccc(NC(=O)Nc6ccc(Cl)cc6)cc5)sc4c3)sc2c1S(=O)(=O)O |  | 4.07
14 | Cc1ccc2nc(-c3ccc4nc(-c5ccc(NC(=O)c6cccc(Cl)c6)cc5)sc4c3)sc2c1S(=O)(=O)O |  | 4.13
15 | Cc1ccc2nc(-c3ccc4nc(-c5ccc(NC(=O)c6ccc(N)cc6)cc5)sc4c3)sc2c1S(=O)(=O)O | inactive | 
16 | COc1ccc(C(=O)Nc2ccc(-c3nc4ccc(-c5nc6ccc(C)c(S(=O)(=O)O)c6s5)cc4s3)cc2)cc1 |  | 4.30

Row | Structure (SMILES) | IC50 | pIC50
17 | COc1ccc(NC(=O)Nc2ccc(-c3nc4ccc(-c5nc6ccc(C)c(S(=O)(=O)O)c6s5)cc4s3)cc2)cc1 |  | 4.14
18 | Cc1ccc2nc(-c3ccc4nc(-c5ccc(NC(=O)c6cc(C(F)(F)F)cc(C(F)(F)F)c6)cc5)sc4c3)sc2c1S(=O)(=O)O | inactive | 
19 | Cc1ccc2nc(-c3ccc4nc(-c5ccc(NC(=O)c6cccnc6)cc5)sc4c3)sc2c1S(=O)(=O)O | > 200 µM (inactive) | 
20 | Cc1ccc2nc(-c3ccc4nc(-c5ccc(NC(=O)c6ccc7nc(-c8ccc(N)cc8)sc7c6)cc5)sc4c3)sc2c1S(=O)(=O)O | > 200 µM (inactive) | 
21 | Cc1ccc2nc(-c3ccc4nc(-c5ccc(NC(=O)c6ccc(Br)cc6)cc5)sc4c3)sc2c1S(=O)(=O)O |  | 4.30
22 | Cc1ccc(C(=O)Nc2ccc(-c3nc4ccc(-c5nc6ccc(C)c(S(=O)(=O)O)c6s5)cc4s3)cc2)cc1 |  | 4.48
23 | Cc1cc2sc(-c3ccc(N)cc3)nc2cc1S(=O)(=O)O | > 200 µM (inactive) | 
24 | COc1cccc2c(=O)c3cc(Cl)cc(C(=O)Nc4cc(Cl)ccn4)c3[nH]c12 | > 200 µM (inactive) | 
25 | Cc1ccc2nc(-c3ccc4nc(-c5ccc(NC(=O)c6ccc(Cl)c(Cl)c6)cc5)sc4c3)sc2c1S(=O)(=O)O |  | 4.36
26 | Cc1ccc2nc(-c3ccc4nc(-c5ccc(NC(=O)c6ccc(C(C)(C)C)cc6)cc5)sc4c3)sc2c1S(=O)(=O)O | inactive | 
27 | Cc1ccc2nc(-c3ccc4nc(-c5ccc(NC(=O)c6ccc7ccccc7c6)cc5)sc4c3)sc2c1S(=O)(=O)O |  | 4.52
28 | Cc1ccc2nc(-c3ccc4nc(-c5ccc(NC(=O)c6ccc(C(F)(F)F)cc6)cc5)sc4c3)sc2c1S(=O)(=O)O |  | 4.62
29 | CCN(CC)c1ccc(-c2nc3ccc(C)c(S(=O)(=O)O)c3s2)cc1 | > 200 µM (inactive) | 
30 | Cc1ccc2nc(-c3ccc4nc(-c5ccc6nc(-c7ccc8nc(-c9ccc(N)cc9)sc8c7)sc6c5)sc4c3)sc2c1S(=O)(=O)O |  | 4.37
31 | CN1CCN(Cc2cc(CN3CCN(C)CC3)c(O)c(=O)c(CN3CCN(C)CC3)c2)CC1 | > 200 µM (inactive) | 
